How the values were obtained:
[1] = test system: IL-12 induced STAT4 phosphorylation (IL-12 signals through TYK2 and JAK2); experiment: Human Whole Blood IL-12 Induced STAT4 Phosphorylation Assay; assay type: cell-based; conditions: Lymphocyte, IL-12 5 ng/mL, pSTAT4 in lymphocytes by flow cytometry, read-out: HWB IL-12 IC50
Protocol: Selected compounds were assessed for their ability to inhibit IL-12 signaling in a human whole blood flow cytometry assay. IL-12 signals through TYK2 and JAK2. Human Whole Blood IL-12 Induced STAT4 Phosphorylation Assay
Test articles were prepared as 30 mM stocks in DMSO. An 11-point 2.5 dilution series was created in DMSO with a top concentration of 10 mM. Further dilution was done by adding 4 μL of the above test article solutions into 96 μL of PBS with a top concentration of 400 μM. […] Blood was warmed to 37° C. prior to use. Human whole blood was aliquoted ([…]) in 96-well, deep-well, V-bottom plates and treated with compounds at 11 different concentrations (0.2% DMSO final) at 37° C. for 60 minutes. This was followed by a challenge with IL-12 ([…]; final, 5 ng/mL) for 15 minutes. Samples were treated with warm 1× Lyse/Fix buffer ([…]) to terminate activation and further incubated at 37° C. for 20 minutes to lyse red blood cells. Plates were centrifuged at 300×g for 5 minutes, supernatant was aspirated, and cells were washed with […] of staining buffer (PBS containing 0.5% fetal bovine serum and 0.01% sodium azide). The washed cell pellets were resuspended with […] of pre-chilled 90% methanol, and incubated at 4° C. for 30 minutes. Plates were centrifuged at 300×g for 5 minutes, supernatant containing 90% methanol was aspirated, and cells were washed with […]/well of staining buffer. Cell pellets were resuspended in staining buffer containing anti-pSTAT4-AlexaFluor647 (1 to 150 dilution, […]), and incubated at room temperature in the dark overnight.
Samples were transferred to 96-well U-bottom plates and flow cytometric analysis was performed on a FACSCalibur or LSRFortessa equipped with a HTS plate loader (BD Biosciences). The lymphocyte population was gated for histogram analysis of pSTAT4. Background fluorescence was defined using unstimulated cells and a gate was placed at the foot of the peak to include ˜0.5% gated population. The histogram statistical analysis was performed using CellQuestO Pro version 5.2.1 (BD Biosciences) or FACSDiva version 6.2 (BD Biosciences) software. Relative fluorescence unit (RFU), which measures the level of phospho STAT4, was calculated by multiplying the percent positive population and its mean fluorescence. Data from 11 compound concentrations (singlicate at each concentration) was normalized as a percentage of control based on the formula: % of Control=100×(A−B)/(C−B) where A is the RFU from wells containing compound and IL-12, B is the RFU from wells without IL-12 and compound (minimum fluorescence) and C is the RFU from wells containing only IL-12 (maximum fluorescence). Inhibition curves and IC50 values were determined using the Prism version 5 software (GraphPad, La Jolla, Calif.).

JAK3 = JAK3 (Homo sapiens (Human), UniProt P52333); experiment: JAK Caliper enzyme assay at 1 mM ATP (JAK3); assay type: biochemical; conditions: recombinant human kinase domain, Caliper mobility shift
Protocol: (§1) Compounds of the invention were evaluated by in vitro methods to determine their respective ability to inhibit the JAK kinases (TYK2, JAK1, JAK2, JAK3).
(§2) The human JAK inhibitory activity was determined by using a microfluidic assay to monitor phosphorylation of a synthetic peptide by the recombinant human kinase domain of each of the four members of the JAK family, JAK1, JAK2, JAK3 and TYK2. […] Each assay condition was optimized for enzyme concentration and room temperature incubation time to obtain a conversion rate of 20% to 30% phosphorylated peptide product. Reactions were terminated by the addition of stop buffer containing EDTA. Utilizing the LabChip 3000 mobility shift technology (Caliper Life Science), each assay reaction was sampled to determine the level of phosphorylation. This technology is separation-based, allowing direct detection of fluorescently labeled substrates and products. Separations are controlled by a combination of vacuum pressure and electric field strength optimized for each peptide substrate.
(§3) JAK Caliper Enzyme Assay at 1 mM ATP
(§4) Compounds were added to a 384-well plate. Reaction mixtures contained 10 mM HEPES, pH 7.4, 10 mM MgCl2, 0.01% BSA, 0.0005% Tween 20, 1 mM ATP and 1 μM peptide substrate. […] The assays were initiated by the addition of 20 nM JAK1, 1 nM JAK2, 1 nM JAK or 1 nM TYK2 enzyme and were incubated at room temperature for three hours for JAK1, 60 minutes for JAK2, 75 minutes for JAK3 or 135 minutes for TYK2. Enzyme concentrations and incubation times were optimized for each new enzyme preps and were modified slightly over time to ensure 20% to 30% phosphorylation. The assays were stopped with 15 μL of 180 mM HEPES, pH 7.4, 20 mM EDTA, and 0.2% Coating Reagent 3. The assay plates were placed on a Caliper Life Science LC3000 instrument, and each well was sampled using appropriate separation conditions to measure the unphosphorylated and phosphorylated peptide.
(§5) The data was collected using the HTS Well Analyzer software from Caliper Life Sciences. The data output for data analysis is the percent product converted calculated on peak height (Equation 1). % product converted=100*((product)/(product+substrate)) Equation 1: […]
(§6) The percent effect at each compound concentration was calculated based on the positive and negative control well contained within each assay plate (Equation 2). […] The negative control wells contained DMSO alone (at the same concentration as the compound wells) that was used to set the baseline activity in the assay (i.e., uninhibited JAK1, JAK2, JAK3 or TYK2). % effect=100*((sample well−negative control)/(positive control-negative control)) Equation 2: The percent effect was plotted against the compound concentration compound.

JAK2 = JAK2 (Homo sapiens (Human), UniProt O60674); experiment: JAK Caliper enzyme assay at 1 mM ATP (JAK2); assay type: biochemical; conditions: recombinant human kinase domain, Caliper mobility shift
Protocol: as §1, §2, §3, §4, §5, §6

TYK2 = TYK2 (Homo sapiens (Human), UniProt P29597); experiment: JAK Caliper enzyme assay at 1 mM ATP (TYK2); assay type: biochemical; conditions: recombinant human kinase domain, Caliper mobility shift
Protocol: as §1, §2, §3, §4, §5, §6

JAK1 = JAK1 (Homo sapiens (Human), UniProt P23458); experiment: JAK Caliper enzyme assay at 1 mM ATP (JAK1); assay type: biochemical; conditions: recombinant human kinase domain, Caliper mobility shift
Protocol: Compounds of the invention were evaluated by in vitro methods to determine their respective ability to inhibit the JAK kinases (TYK2, JAK1, JAK2, JAK3). The human JAK inhibitory activity was determined by using a microfluidic assay to monitor phosphorylation of a synthetic peptide by the recombinant human kinase domain of each of the four members of the JAK family, JAK1, JAK2, JAK3 and TYK2. […] Reactions were terminated by the addition of stop buffer containing EDTA. Utilizing the LabChip 3000 mobility shift technology (Caliper Life Science), each assay reaction was sampled to determine the level of phosphorylation. This technology is separation-based, allowing direct detection of fluorescently labeled substrates and products. Separations are controlled by a combination of vacuum pressure and electric field strength optimized for each peptide substrate. […] Compounds were added to a 384-well plate. […] Enzyme concentrations and incubation times were optimized for each new enzyme preps and were modified slightly over time to ensure 20% to 30% phosphorylation. […] The assay plates were placed on a Caliper Life Science LC3000 instrument, and each well was sampled using appropriate separation conditions to measure the unphosphorylated and phosphorylated peptide. The data was collected using the HTS Well Analyzer software from Caliper Life Sciences. […] The percent effect at each compound concentration was calculated based on the positive and negative control well contained within each assay plate (Equation 2). […] The percent effect was plotted against the compound concentration compound. […] Where max is the maximum asymptote (complete inhibition), min is the minimum asymptote (no inhibition) and s is the slope factor.

Chain of JAK2 (O60674 849-1124): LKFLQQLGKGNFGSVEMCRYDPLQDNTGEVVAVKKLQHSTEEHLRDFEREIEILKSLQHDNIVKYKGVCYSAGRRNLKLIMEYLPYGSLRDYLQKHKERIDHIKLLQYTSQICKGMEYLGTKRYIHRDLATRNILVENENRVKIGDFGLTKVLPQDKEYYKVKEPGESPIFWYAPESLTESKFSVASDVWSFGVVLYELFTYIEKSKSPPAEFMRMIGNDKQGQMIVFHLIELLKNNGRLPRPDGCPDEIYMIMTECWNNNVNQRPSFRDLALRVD
Chain of JAK3 (P52333 822-1111): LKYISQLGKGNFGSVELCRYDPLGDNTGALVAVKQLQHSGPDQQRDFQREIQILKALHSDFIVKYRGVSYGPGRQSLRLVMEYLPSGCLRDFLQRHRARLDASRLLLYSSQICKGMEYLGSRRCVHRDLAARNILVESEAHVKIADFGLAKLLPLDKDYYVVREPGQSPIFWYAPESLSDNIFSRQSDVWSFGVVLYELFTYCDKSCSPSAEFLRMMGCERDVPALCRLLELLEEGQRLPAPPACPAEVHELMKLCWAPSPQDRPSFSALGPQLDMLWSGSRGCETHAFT
Chain of JAK1 (P23458 875-1153): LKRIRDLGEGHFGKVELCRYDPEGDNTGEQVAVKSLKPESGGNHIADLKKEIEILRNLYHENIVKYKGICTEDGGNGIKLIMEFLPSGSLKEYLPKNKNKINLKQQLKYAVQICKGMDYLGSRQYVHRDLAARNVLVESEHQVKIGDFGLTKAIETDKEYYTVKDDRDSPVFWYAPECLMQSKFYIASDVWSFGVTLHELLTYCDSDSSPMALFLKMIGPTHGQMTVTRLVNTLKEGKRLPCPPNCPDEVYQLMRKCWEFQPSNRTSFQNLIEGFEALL
Chain of TYK2 (P29597 897-1176): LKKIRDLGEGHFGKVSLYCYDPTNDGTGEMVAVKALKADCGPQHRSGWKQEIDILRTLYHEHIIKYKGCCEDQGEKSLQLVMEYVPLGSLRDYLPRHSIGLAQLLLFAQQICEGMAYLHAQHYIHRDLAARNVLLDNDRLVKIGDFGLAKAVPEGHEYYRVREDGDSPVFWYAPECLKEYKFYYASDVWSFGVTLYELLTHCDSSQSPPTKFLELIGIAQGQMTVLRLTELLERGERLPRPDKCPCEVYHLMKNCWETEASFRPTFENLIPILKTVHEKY

IC50 [1] [nM]	IC50 (JAK3) [nM]	IC50 (JAK2) [nM]	IC50 (TYK2) [nM]	IC50 (JAK1) [nM]	Compound
50					Cn1cc(-c2cn3nccc3c(-c3cnn([C@]4(CC#N)C[C@@H](C#N)C4)c3)n2)cn1 [Example 20, (1r,3r)-3-(Cyanomethyl)-3-(4-(6-(1-methyl-1H-pyrazol-4-yl)pyrazolo[1,5-a]pyrazin-4-yl)-1H-pyrazol-1-yl)cyclobutane-1-carbonitrile]
	> 10000	444	52	8720	Cn1cc(-c2cn3nccc3c(-c3cnn([C@]4(CC#N)C[C@@H](C#N)C4)c3)n2)nn1 [Example 33, (1r,3r)-3-(Cyanomethyl)-3-(4-(6-(1-methyl-1H-1,2,3-triazol-4-yl)pyrazolo[1,5-a]pyrazin-4-yl)-1H-pyrazol-1-yl)cyclobutane-1-carbonitrile]
28					Cn1cc(-c2cn3nccc3c(-c3cnn([C@]4(CC#N)C[C@H](C#N)C4)c3)n2)cn1 [Example 19, (1s,3s)-3-(Cyanomethyl)-3-(4-(6-(1-methyl-1H-pyrazol-4-yl)pyrazolo[1,5-a]pyrazin-4-yl)-1H-pyrazol-1-yl)cyclobutane-1-carbonitrile]
	> 10000	158	21	713	Cc1cc(-c2cn3nccc3c(-c3cnn([C@]4(CC#N)C[C@@H](C#N)C4)c3)n2)n[nH]1 [Example 26, (1r,3r)-3-(Cyanomethyl)-3-(4-(6-(5-methyl-1H-pyrazol-3-yl)pyrazolo[1,5-a]pyrazin-4-yl)-1H-pyrazol-1-yl)cyclobutane-1-carbonitrile]

More lines, now with the values behind:

Compound	IC50 [1] [nM]	IC50 (JAK3) [nM]	IC50 (JAK2) [nM]	IC50 (TYK2) [nM]	IC50 (JAK1) [nM]
Cn1cc(-c2cn3nccc3c(-c3cnn(C4(CC#N)CN(S(=O)(=O)C5CC5)C4)c3)n2)cn1 [Example 9, 2-(1-(Cyclopropylsulfonyl)-3-(4-(6-(1-methyl-1H-pyrazol-4-yl)pyrazolo[1,5-a]pyrazin-4-yl)-1H-pyrazol-1-yl)azetidin-3-yl)acetonitrile]		> 10000	49	8	185
N#CC[C@]1(n2cc(-c3nc(-c4cc(CO)on4)cn4nccc34)cn2)C[C@@H](C#N)C1 [Example 1, (1s,3s)-3-(Cyanomethyl)-3-(4-(6-(5-(hydroxymethyl)isoxazol-3-yl)pyrazolo[1,5-a]pyrazin-4-yl)-1H-pyrazol-1-yl)cyclobutane-1-carbonitrile]	162	> 9790	40		
Cn1cc(-c2cn3nccc3c(-c3cnn([C@]4(CC#N)C[C@@H](c5ccn[nH]5)C4)c3)n2)cn1 [Example 18, 2-((1r,3r)-1-(4-(6-(1-Methyl-1H-pyrazol-4-yl)pyrazolo[1,5-a]pyrazin-4-yl)-1H-pyrazol-1-yl)-3-(1H-pyrazol-5-yl)cyclobutyl)acetonitrile]		10000	206	47	1080
C[C@H]1N(CC(F)(F)F)C[C@]1(CC#N)n1cc(-c2nc(-c3cnn(C)c3)cn3nccc23)cn1 [Example 17, 2-((2R,3S)-2-Methyl-3-(4-(6-(1-methyl-1H-pyrazol-4-yl)pyrazolo[1,5-a]pyrazin-4-yl)-1H-pyrazol-1-yl)-1-(2,2,2-trifluoroethyl)azetidin-3-yl)acetonitrile]		10000	205	35	1730
Cn1cc(-c2cn3nccc3c(-c3cnn([C@]4(CC#N)C[C@](C)(C#N)C4)c3)n2)cn1 [Example 34, (1s,3s)-3-(Cyanomethyl)-1-methyl-3-(4-(6-(1-methyl-1H-pyrazol-4-yl)pyrazolo[1,5-a]pyrazin-4-yl)-1H-pyrazol-1-yl)cyclobutane-1-carbonitrile]		3260	19	11	96
Cn1cc(-c2cn3nccc3c(-c3cnn([C@]4(CC#N)C[C@@H](C#N)C4)c3)n2)c(CO)n1 [Example 22, (1r,3r)-3-(Cyanomethyl)-3-(4-(6-(3-(hydroxymethyl)-1-methyl-1H-pyrazol-4-yl)pyrazolo[1,5-a]pyrazin-4-yl)-1H-pyrazol-1-yl)cyclobutane-1-carbonitrile]		> 10000	127	30	2540
N#CC[C@]1(n2cc(-c3nc(-c4cc(C(N)=O)no4)cn4nccc34)cn2)C[C@H](C#N)C1 [Example 29, 5-(4-(1-((1r,3r)-3-Cyano-1-(cyanomethyl)cyclobutyl)-1H-pyrazol-4-yl)pyrazolo[1,5-a]pyrazin-6-yl)isoxazole-3-carboxamide]		> 10000	3040	352	3930
Cc1cc2c(-c3cnn([C@]4(CC#N)C[C@@H](C#N)C4)c3)nc(-c3cnn(C)c3)cn2n1 [Example 36, (1r,3r)-3-(Cyanomethyl)-3-(4-(2-methyl-6-(1-methyl-1H-pyrazol-4-yl)pyrazolo[1,5-a]pyrazin-4-yl)-1H-pyrazol-1-yl)cyclobutane-1-carbonitrile]		> 10000	755	1600	3520

— US10144738B2, “Pyrazolo[1,5-A]PYRAZIN-4-YL derivatives” (Pfizer Inc., priority 2016, dated 2018)
